According to patent US8741951B2, “Non-steroidal compounds for androgen receptor modulation” (CNR—Consiglio Nazionale delle Ricerche, priority 2009, dated 2014):

What follows are compounds tested on LNCaP cells (assay: SRB in vitro chemosensitivity assay, LNCaP). Details: Homo sapiens, LNCaP, 144 h.
Type: cell-based
Experimental: (§1) The cell lines were maintained as a monolayer at 37° C. and subcultured weekly. Culture medium was composed of RPMI 1640 supplemented with 10% fetal calf serum and 1% glutamine (Mascia Brunelli s.p.a., Milan, Italy). Cells were used in the exponential growth phase in all the experiments.
(§2) Compounds were dissolved in acetone or DMSO (AITES) ([…]) and stored at −20° C. The cell culture containing acetone at the highest concentration was used as the control.
(§3) Sulforhodamine B (SRB) assay was used according to the method by Skehan et al. (JNCI, 1990). Briefly, cells were collected by trypsinization, counted and plated at a density of 5,000 cells/well in 96-well flat-bottomed microtiter plates (100 μl of cell suspension/well). In the chemosensitivity assay, experiments were run in octuplicate, and each experiment was repeated three times. The optical density (OD) of cells was determined at a wavelength of 490 nm by a colorimetric plate reader.
(§4) If ODtreated is above ODzero, treatment has induced a cytostatic effect, whereas if ODtreated is below ODzero, cell killing has occurred. The ODzero depicts the cell number at the moment of drug addition, the ODcontrol reflects the cell number in untreated wells and the ODtreated reflects the cell number in treated wells on the day of the assay.
(§5) FIGS. 2-11 show the cytotoxic activity of the derivative compounds of the invention on the LNCaP and LNCaP-AR cell lines. The authors examined the antitumour activity of the compounds for which the synthesis is described above, in the hormone-sensitive prostate cancer cell line LNCaP and in its derivative cell line LNCaP-AR, expressing high level of AR and with hormone refractory prostate cancer (HRPC) features. The novel compounds were tested at the increasing concentrations of […], 0.2, 2.0, and 20.0 μM. The highest dose used was chosen on the basis of the clinically achievable peak plasma concentration reported in the literature for bicalutamide (Cockshott I D. Clin Pharmacokinet. 2004; 43(13): 855-78). After 144-hr exposure time the cytotoxic effect of the molecules was calculated according to the method of Monks et al. (Monks A, Scudiero D, Skehan P, et al. Feasibility of a high-flux anticancer drug screen using a diverse panel of cultured human tumor cell lines. J Natl Cancer Inst. 1991; 83: 757-66.)

| Compound | GI50 [µM] |
| --- | --- |
| N#Cc1ccc(NC(=O)[C@](O)(Cc2cccc3ccccc23)CS(=O)(=O)c2ccc(F)cc2)cc1C(F)(F)F [(R)-XXIII-10] | 6.1 |
| N#Cc1ccc(NC(=O)[C@](O)(Cc2ccc(F)cc2)CS(=O)(=O)c2ccc(F)cc2)cc1C(F)(F)F [(R)-XXIII-4] | 7 |
| N#Cc1ccc(C[C@](O)(CS(=O)(=O)c2ccc(F)cc2)C(=O)Nc2ccc(C#N)c(C(F)(F)F)c2)cc1 [(R)-XXIII-7] | 1.4 |

Same assay, conditions: Homo sapiens, LNCaP, 144 h, read-out: LC50, LNCaP cells, 144 h exposure, up to 20 μM

| Compound | LC50 [µM] |
| --- | --- |
| N#Cc1ccc(NC(=O)[C@](O)(Cc2cccc3ccccc23)CS(=O)(=O)c2ccc(F)cc2)cc1C(F)(F)F [(R)-XXIII-10] | 16.2 to 20 |
| N#Cc1ccc(C[C@](O)(CS(=O)(=O)c2ccc(F)cc2)C(=O)Nc2ccc(C#N)c(C(F)(F)F)c2)cc1 [(R)-XXIII-7] | 16.2 to 20 |

Same assay, conditions: LNCaP cells, 144 h exposure, up to 20 μM

| Compound | LC50 |
| --- | --- |
| N#Cc1ccc(NC(=O)[C@](O)(Cc2ccc(F)cc2)CS(=O)(=O)c2ccc(F)cc2)cc1C(F)(F)F [(R)-XXIII-4] | n.r. |

Same assay, conditions: LNCaP, 144 h, up to 20 μM

| Compound | cytotoxic effect (cytostatic / cytocidal), in words |
| --- | --- |
| N#Cc1ccc(NC(=O)[C@](O)(Cc2cccc3ccccc23)CS(=O)(=O)c2ccc(F)cc2)cc1C(F)(F)F [(R)-XXIII-10] | cell killing activity |
| N#Cc1ccc(NC(=O)[C@](O)(Cc2ccc(F)cc2)CS(=O)(=O)c2ccc(F)cc2)cc1C(F)(F)F [(R)-XXIII-4] | suppress completely the cell growth |
| N#Cc1ccc(C[C@](O)(CS(=O)(=O)c2ccc(F)cc2)C(=O)Nc2ccc(C#N)c(C(F)(F)F)c2)cc1 [(R)-XXIII-7] | cytocidal effect |

Same assay, conditions: read-out: LC50; LNCaP cells, 144 h exposure, up to 20 μM

| Compound | LC50 [µM] |
| --- | --- |
| N#Cc1ccc(NC(=O)[C@](O)(Cc2cccc3ccccc23)CS(=O)(=O)c2ccc(F)cc2)cc1C(F)(F)F [(R)-XXIII-10] | 19.7 |
| N#Cc1ccc(C[C@](O)(CS(=O)(=O)c2ccc(F)cc2)C(=O)Nc2ccc(C#N)c(C(F)(F)F)c2)cc1 [(R)-XXIII-7] | 20 |

These compounds were tested on LNCaP-AR cells (assay: SRB in vitro chemosensitivity assay, LNCaP-AR). Details: Homo sapiens, LNCaP/AR, 144 h.
Type: cell-based
Experimental: as §1, §2, §3, §4, §5

| Compound | GI50 [µM] |
| --- | --- |
| N#Cc1ccc(NC(=O)[C@](O)(Cc2cccc3ccccc23)CS(=O)(=O)c2ccc(F)cc2)cc1C(F)(F)F [(R)-XXIII-10] | 8.3 |
| N#Cc1ccc(NC(=O)[C@](O)(Cc2ccc(F)cc2)CS(=O)(=O)c2ccc(F)cc2)cc1C(F)(F)F [(R)-XXIII-4] | 7.5 |
| N#Cc1ccc(C[C@](O)(CS(=O)(=O)c2ccc(F)cc2)C(=O)Nc2ccc(C#N)c(C(F)(F)F)c2)cc1 [(R)-XXIII-7] | 1.8 |

Same assay, conditions: LNCaP-AR cells, 144 h exposure, up to 20 μM

| Compound | LC50 |
| --- | --- |
| N#Cc1ccc(NC(=O)[C@](O)(Cc2cccc3ccccc23)CS(=O)(=O)c2ccc(F)cc2)cc1C(F)(F)F [(R)-XXIII-10] | n.r. |
| N#Cc1ccc(NC(=O)[C@](O)(Cc2ccc(F)cc2)CS(=O)(=O)c2ccc(F)cc2)cc1C(F)(F)F [(R)-XXIII-4] | n.r. |
| N#Cc1ccc(C[C@](O)(CS(=O)(=O)c2ccc(F)cc2)C(=O)Nc2ccc(C#N)c(C(F)(F)F)c2)cc1 [(R)-XXIII-7] | n.r. |

Same assay, conditions: LNCaP-AR, 144 h, up to 20 μM

| Compound | cytotoxic effect (cytostatic / cytocidal), in words |
| --- | --- |
| N#Cc1ccc(NC(=O)[C@](O)(Cc2cccc3ccccc23)CS(=O)(=O)c2ccc(F)cc2)cc1C(F)(F)F [(R)-XXIII-10] | cell killing activity |
| N#Cc1ccc(NC(=O)[C@](O)(Cc2ccc(F)cc2)CS(=O)(=O)c2ccc(F)cc2)cc1C(F)(F)F [(R)-XXIII-4] | suppress completely the cell growth |

These compounds were tested on PC-3 cell line (assay: SRB cytotoxicity, PC-3). Details: PC-3 (no AR), 144 h, up to 20 μM.
Type: cell-based, human
Experimental: (§6) FIGS. 16-25: cytotoxic effect of compounds (R)-XXIII-2, (R)-XXIII-3, (R)-XXIII-4, (R)-XXIII-5, (R)-XXIII-6, (R)-XXIII-7, (R)-XXIII-8, (R)-XXIII-9, (R)-XXIII-10, (R)-XXIV-9 on PC-3 and DU-145 cell lines at different concentration (0.02, 0.2, 2, 20 μM) after 144 h exposure. On the x-axis is reported the concentration, while on the y-axis is reported the inhibition of the net growth (% net growth).
as §3, §4

| Compound | cytotoxic activity, in words |
| --- | --- |
| N#Cc1ccc(NC(=O)[C@](O)(Cc2cccc3ccccc23)CS(=O)(=O)c2ccc(F)cc2)cc1C(F)(F)F [(R)-XXIII-10] | maintain their cytostatic and cytocidal activity reaching LC50 values |
| N#Cc1ccc(NC(=O)[C@](O)(Cc2ccc(F)cc2)CS(=O)(=O)c2ccc(F)cc2)cc1C(F)(F)F [(R)-XXIII-4] | negligible cytotoxic activity |
| N#Cc1ccc(C[C@](O)(CS(=O)(=O)c2ccc(F)cc2)C(=O)Nc2ccc(C#N)c(C(F)(F)F)c2)cc1 [(R)-XXIII-7] | negligible cytotoxic activity |

Each compound was assayed on DU145 cell line (assay: SRB cytotoxicity, DU145). Details: DU145 (no AR), 144 h, up to 20 μM.
Type: cell-based, human
Experimental: as §6, §3, §4

| Compound | cytotoxic activity, in words |
| --- | --- |
| N#Cc1ccc(NC(=O)[C@](O)(Cc2cccc3ccccc23)CS(=O)(=O)c2ccc(F)cc2)cc1C(F)(F)F [(R)-XXIII-10] | maintain their cytostatic and cytocidal activity reaching LC50 values |
| N#Cc1ccc(NC(=O)[C@](O)(Cc2ccc(F)cc2)CS(=O)(=O)c2ccc(F)cc2)cc1C(F)(F)F [(R)-XXIII-4] | negligible cytotoxic activity |
| N#Cc1ccc(C[C@](O)(CS(=O)(=O)c2ccc(F)cc2)C(=O)Nc2ccc(C#N)c(C(F)(F)F)c2)cc1 [(R)-XXIII-7] | negligible cytotoxic activity |

The compounds below were run on human hepatoblastoma cell line HepG2 (assay: Cytotoxic activity on HepG2 (hepato-toxicity)). Details: HepG2, up to highest concentration tested.
Type: cell-based
Experimental: as §3, §4
FIG. 27-36 show the cytotoxic activity of the drugs on the human hepatoblastoma cell line HepG2. The authors evaluated in vitro the potential hepato-toxicity of some of the novel compounds on HepG2 cell line, a human hepatoblastoma cell line that retains the specialized function of normal hepatocytes [Knowles B B, Howe C C, Aden D P. Human hepatocellular carcinoma cell lines secretes the major plasma proteins and hepatitis B surface antigen. Science 1980, 209:497-499; Aden D P, Vogel A, Plortkin S, Damjanov I, Knowles B B. Controlled synthesis of HBS Ag in a differentiated human liver carcinoma-derived cell line. Nature, 1979, 282:615-616].

| Compound | LC50 | hepato-toxicity, in words |
| --- | --- | --- |
| N#Cc1ccc(NC(=O)[C@](O)(Cc2cccc3ccccc23)CS(=O)(=O)c2ccc(F)cc2)cc1C(F)(F)F [(R)-XXIII-10] | not able to reach LC50 value | Hepato-toxicity was observed |
| N#Cc1ccc(NC(=O)[C@](O)(Cc2ccc(F)cc2)CS(=O)(=O)c2ccc(F)cc2)cc1C(F)(F)F [(R)-XXIII-4] |  | did not display toxicity |
| N#Cc1ccc(C[C@](O)(CS(=O)(=O)c2ccc(F)cc2)C(=O)Nc2ccc(C#N)c(C(F)(F)F)c2)cc1 [(R)-XXIII-7] |  | did not display toxicity |

These compounds were tested against T1, human androgen receptor (hAR) (Homo sapiens, UniProt P10275) (assay: hAR transactivation assay (ARE-luc) in Cos-7 cells). Details: compound 10 μM with 10 nM R1881.
T1 construct: expressed in transfected cells; host or cells: Cos-7
T1 sequence (P10275 1-920): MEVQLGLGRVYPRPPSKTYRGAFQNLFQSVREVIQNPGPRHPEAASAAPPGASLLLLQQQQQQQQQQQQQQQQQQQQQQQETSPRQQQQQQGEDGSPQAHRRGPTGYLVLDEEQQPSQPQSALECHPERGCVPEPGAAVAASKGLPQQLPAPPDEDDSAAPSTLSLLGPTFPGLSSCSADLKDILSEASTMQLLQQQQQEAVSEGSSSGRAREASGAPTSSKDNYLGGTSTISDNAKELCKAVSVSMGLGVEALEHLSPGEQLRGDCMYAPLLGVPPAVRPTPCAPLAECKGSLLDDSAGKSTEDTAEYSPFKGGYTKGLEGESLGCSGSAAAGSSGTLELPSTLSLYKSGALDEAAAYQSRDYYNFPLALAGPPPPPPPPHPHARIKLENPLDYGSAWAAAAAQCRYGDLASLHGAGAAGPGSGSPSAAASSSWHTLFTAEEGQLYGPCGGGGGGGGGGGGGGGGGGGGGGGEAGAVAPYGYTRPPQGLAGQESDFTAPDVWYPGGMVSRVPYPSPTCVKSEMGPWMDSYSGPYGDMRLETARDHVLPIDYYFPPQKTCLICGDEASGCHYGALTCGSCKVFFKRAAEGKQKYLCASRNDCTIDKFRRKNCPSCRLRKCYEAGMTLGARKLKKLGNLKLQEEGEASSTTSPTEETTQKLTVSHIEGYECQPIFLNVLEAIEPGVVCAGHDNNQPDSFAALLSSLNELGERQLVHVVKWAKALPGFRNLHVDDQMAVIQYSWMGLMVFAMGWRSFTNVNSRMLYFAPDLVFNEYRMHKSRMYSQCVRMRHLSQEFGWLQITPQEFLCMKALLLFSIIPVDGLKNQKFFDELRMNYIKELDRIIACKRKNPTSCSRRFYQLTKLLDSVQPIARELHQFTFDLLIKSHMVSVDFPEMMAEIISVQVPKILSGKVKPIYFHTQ
Type: cell-based
Text: The cDNA coding hAR was cloned into the pSG5 expression vector as reported previously [Chang, C. S., J. Kokontis, and S. T. Liao 1988 Molecular cloning of human and rat complementary DNA encoding androgen receptors Science 240:324-326].
The 3416 construct (ARE-Luc), containing four copies of the wild-type slp-HRE2 (5′-TGGTCAgccAGTTCT-3′) was cloned in the NheI site in pTK-TATA-Luc [Verrijdt, G., E. Schoenmakers, A. Haelens, B. Peeters, G. Verhoeven, W. Rombauts, and F. Claessens 2000 Change of specificity mutations in androgen selective enhancers J. Biol. Chem. 275:12298-12305].
For androgen-stimulated transcriptional analysis, 32×10^4 Cos-7 cells were plated in phenol red-free DMEM containing 5% charcoal-stripped serum. After 48 h, the cells were transfected by Superfect (Qiagen) with 0.3 μg of 3416-pTK-TATA-Luc construct, together with 1.5 μg of either pSG5-empty plasmid or pSG5-hAR expressing plasmid. […] When indicated, the synthetic compounds were added alone to the cell medium. […] It was dissolved in 0.001% (final concentration) ethanol. Control cells were treated with the vehicle alone. Lysates were prepared and the luciferase activity was measured using a luciferase assay system (Promega). The results were corrected using CH110-expressed beta-galactosidase activity (Amersham Biosciences) and luciferase activity was expressed as fold induction. Results were obtained from two or three different experiments, each performed in duplicate. Mean and SEM are shown.

| Compound | inhibition of R1881-induced AR transcriptional activation (antagonistic activity), in words |
| --- | --- |
| N#Cc1ccc(NC(=O)[C@](O)(Cc2ccc(F)cc2)CS(=O)(=O)c2ccc(F)cc2)cc1C(F)(F)F [(R)-XXIII-4] | A more pronounced inhibition |
